Patent US20220323471A1 (priority 2019, published 2022)
“Also recorded” adds a separate entry of the source.

Key:
TBEV-RVP = type: cell-based, tick-borne encephalitis virus
ZIKV-RVP = type: cell-based, Zika virus; conditions: VERO, HT1080, CHME3 cells; MOI 0.5; 48 hours
[1] = tested on: endosomes and lysosomes of HT1080 cells; experiment: Acridine Orange fluorescence, endosomal/lysosomal acidification; type: cell-based, human; conditions: 4 hours pre-incubation, DGP, diphyllin, 6DG 2, 1 or 0.1 μM, Bafilomycin 100 nM, NH4Cl 25 mM
Protocol: To determine whether DGP inhibited ZIKV infection by preventing the acidification of endosomes and lysosomes, Acridine Orange (AO) was used, a cell-permeable fluorescent dye marker that accumulates in low pH compartments such as endosomes and lysosomes.
HT1080 cells were pre-incubated for 4 hours with the Bafilomycin (FIG. 10A, 100 nM), NH4Cl (FIG. 10A, 25 mM), DGP (FIG. 10B: 2 μM, 1 μM, or 0.1 μM) diphyllin (FIG. 10C: 2 μM, 1 μM, or 0.1 μM), or 6DG (FIG. 10C: 2 μM, 1 μM, or 0.1 μM) to test whether DGP prevents endosomal/lysosomal acidification. After staining the cells with 1 μg/mL of AO, changes in fluorescence were measured using a Celesta flow cytometer on the PerCP-Cy5-5-A channel. A shift in the AO fluorescence is indicated with an arrow in FIGS. 10A-10D.
Acridine Orange (Invitrogen) staining was performed as described previously (Kanzawa, T. et al. 2004, “Role of autophagy in temozolomide-induced cytotoxicity for malignant glioma cells.” Cell Death Differ 11(4): 448-457). Cells were stained with 1 μg/mL AO in 10% FBS DMEM for 30 min at 37° C. and then collected by trypsinization. Changes in fluorescence were measured using a Celesta flow cytometer in the PerCP-Cy5-5-A channel.

ZIKV MR766 = experiment: qRT-PCR quantification of ZIKV RNA in cells; type: cell-based, Zika virus; conditions: VERO and HT1080 cells; MOI 1; 48 hours; increasing concentrations
Protocol: To corroborate these findings, quantitative real-time PCR (qRT-PCR) was used to quantify viral RNA using specific primers for the ZIKV genome (FIG. 3A). VERO and HT1080 cells were challenged with ZIKV at an MOI of 1 in the presence of DGP at the indicated concentrations. At 48 hours post-infection, ZIKV RNA was quantified by qRT-PCR, and normalized to Actin. […] Inhibition of viral RNA production correlated with the inhibition of viral infection (compare FIG. 3A with FIG. 3B).
To detect viral copies of ZIKV and Sendai Virus (SeV) by qRT-PCR, cells were seeded in 24-well plates, with or without DGP treatment, and infected with the virus at the indicated MOI for 48 h. After the incubation period, total RNA from HT1080, VERO, and CHME3 cells was isolated and purified using Trizol (Invitrogen). For detection of ZIKV viral load in brain and spleen, 3 mice were sacrificed at 6 days post-infection and total RNA was extracted from the brain and spleen. For cDNA synthesis, 1 ng of total RNA was reverse transcribed. The reaction mixture included 1 mM of deoxyribonucleotide phosphates (dNTPs), 2 nM of the specific reverse primer of ZIKV or SeV, 1× M-MULV buffer, 10 U M-MuLV RT (BioLabs), and 2 U of RNase Inhibitor. The reaction mixture was incubated for 1 hour at 42° C. followed by 20 min at 65° C. to inactivate the enzyme. […]
ZIKV RNA levels were measured using real-time PCR. […]

ZIKV = ZIKV viral load in brain and spleen of challenged mice (qRT-PCR); type: in vivo, mouse; conditions: 1 mg/kg; six days post-challenge
Protocol: The effect of DGP on viral replication in the brain and spleen was investigated in ZIKV-challenged mice (FIG. 13). To this end, viral loads were determined by qRT-PCR using specific primers against the ZIKV genome six days post-challenge.
To detect viral copies of ZIKV and Sendai Virus (SeV) by qRT-PCR, cells were seeded in 24-well plates, with or without DGP treatment, and infected with the virus at the indicated MOI for 48 h. After the incubation period, total RNA from HT1080, VERO, and CHME3 cells was isolated and purified using Trizol (Invitrogen). For detection of ZIKV viral load in brain and spleen, 3 mice were sacrificed at 6 days post-infection and total RNA was extracted from the brain and spleen. For cDNA synthesis, 1 ng of total RNA was reverse transcribed. The reaction mixture included 1 mM of deoxyribonucleotide phosphates (dNTPs), 2 nM of the specific reverse primer of ZIKV or SeV, 1× M-MULV buffer, 10 U M-MuLV RT (BioLabs), and 2 U of RNase Inhibitor. The reaction mixture was incubated for 1 hour at 42° C. followed by 20 min at 65° C. to inactivate the enzyme. For actin detection, Oligo-dT was used to reverse transcribe total RNA.

[2] = tested on: HT1080, CHME3, VERO cells; experiment: MTT cell viability assay; type: cell-based, human and monkey; conditions: human or monkey cells (HT1080, CHME3, VERO); 48 hours
Protocol: Cell viability was determined by measuring the reduction of the tetrazolium dye MTT [3-(4,5-dimethylthiazol-2-yl)-2,5-diphenyltetrazolium bromide] to its insoluble form formazan. We treated 4×10^3 cells/well in a 96-well plate with serial dilutions of the indicated drugs. Human and monkey cells were incubated with DGP, diphyllin, or 6-deoxy-D-glucose for 48 hours at 37° C. After the incubation period, 10 μl MTT solution (5 mg/mL) was added to each well for an additional 4 hours at 37° C. Finally, the media was removed and dimethyl sulfoxide was added (200 μl/well) according to the manufacturer's instructions. The optical density was measured at 570 nm using a microplate reader. Experiments were performed in triplicates and standard deviations are shown. Mock-treated cells represent 100% viability.

Compound: COc1cc2c(OC3OC(C)C(O)C(O)C3O)c3c(c(-c4ccc5c(c4)OCO5)c2cc1OC)C(=O)OC3 (stereo not shown) [DGP, 6-deoxyglucose-diphyllin]
- TBEV RVP infection (TBEV-RVP): almost undetectable
- concentration at which ZIKV-RVP infection was substantially inhibited (ZIKV-RVP): 0.25 to 0.50 µM
- acidification of endosomes and lysosomes (AO fluorescence) [1]: decreased AO fluorescence
- synthesis of viral RNA (normalized to Actin) (ZIKV MR766): completely inhibited
- viral replication in the brain (ZIKV): completely inhibited
- viral replication in the spleen (ZIKV): low levels of viral replication were detected
- toxicity at concentrations required to inhibit ZIKV infection (MTT) [2]: non-toxic; also recorded: not toxic
